Experimental data: US12083101B2, “Biaryl derivatives as YAP/TAZ-TEAD protein-protein interaction inhibitors” (Novartis AG, priority 2020, dated 2024)

Target: Avi-humanTEAD4 217-434 / Cy5 labeled humanYAP 60-100 (Homo sapiens (Human), UniProt Q15561)
Test: TR-FRET YAP-TEAD4 in-vitro biochemical assay
Type: binding
Conditions: 1 nM Avi-humanTEAD4 217-434, 20 nM Cy5-humanYAP 60-100, 1 h room temperature

Chain of Avi-humanTEAD4 217-434 / Cy5 labeled humanYAP 60-100 (Q15561 217-434): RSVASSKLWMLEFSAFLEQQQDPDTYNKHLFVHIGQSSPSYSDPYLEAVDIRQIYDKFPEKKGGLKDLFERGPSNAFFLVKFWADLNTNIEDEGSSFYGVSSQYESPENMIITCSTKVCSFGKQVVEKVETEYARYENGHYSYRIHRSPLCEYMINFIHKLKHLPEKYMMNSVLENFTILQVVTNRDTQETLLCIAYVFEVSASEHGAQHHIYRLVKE

Structure (SMILES)	IC50 [nM]
CO[C@H]1CC[C@@H](NC[C@]2(c3ccccc3)Oc3cc(F)c(Cl)c(-c4c(C(N)=O)ccc(OC(F)F)c4F)c3[C@@H]2O)CC1 (relative stereo) [Example 136a, 2-((2S,3S,4S)-5-Chloro-6-fluoro-3-hydroxy-2-((((cis)-4-methoxycyclohexyl)amino)methyl)-2-phenyl-2,3-dihydrobenzofuran-4-yl)-4-(difluoromethoxy)-3-fluorobenzamide]	7
CO[C@H]1CC[C@H](NC[C@]2(c3ccccc3)Oc3cc(F)c(Cl)c(-c4c(C(N)=O)ccc(OC(F)F)c4F)c3[C@@H]2O)CC1 (relative stereo) [Example 136b, 2-((2S,3S,4S)-5-chloro-6-fluoro-3-hydroxy-2-((((trans)-4-methoxycyclohexyl)amino)methyl)-2-phenyl-2,3-dihydrobenzofuran-4-yl)-4-(difluoromethoxy)-3-fluorobenzamide]	7
COC(=O)[C@H]1CC[C@@H](NC[C@@]2(c3ccccc3)Cc3c(ccc(Cl)c3-c3c(C(N)=O)ccc(F)c3F)O2)CC1 (relative stereo) [Example 137a, Methyl (cis)-4-((((2S,4S)-4-(6-carbamoyl-2,3-difluorophenyl)-5-chloro-2-phenyl-2,3-dihydrobenzofuran-2-yl)methyl)amino)cyclohexane-1-carboxylate]	5
COC(=O)[C@H]1CC[C@H](NC[C@@]2(c3ccccc3)Cc3c(ccc(Cl)c3-c3c(C(N)=O)ccc(F)c3F)O2)CC1 (relative stereo) [Example 137b, methyl (trans)-4-((((2S,4S)-4-(6-carbamoyl-2,3-difluorophenyl)-5-chloro-2-phenyl-2,3-dihydrobenzofuran-2-yl)methyl)amino)cyclohexane-1-carboxylate]	6
CNC(=O)[C@H]1CC[C@H](NC[C@@]2(c3ccccc3)Cc3c(ccc(Cl)c3-c3c(F)cccc3C(N)=O)O2)CC1 (relative stereo) [Example 139a, 2-((2S,4S)-5-Chloro-2-((((trans)-4-(methylcarbamoyl)cyclohexyl)amino)methyl)-2-phenyl-2,3-dihydrobenzofuran-4-yl)-3-fluorobenzamide]	21
CNC(=O)[C@H]1CC[C@@H](NC[C@@]2(c3ccccc3)Cc3c(ccc(Cl)c3-c3c(F)cccc3C(N)=O)O2)CC1 (relative stereo) [Example 139b, 2-((2S,4S)-5-chloro-2-((((cis)-4-(methylcarbamoyl)cyclohexyl)amino)methyl)-2-phenyl-2,3-dihydrobenzofuran-4-yl)-3-fluorobenzamide]	11
NC(=O)c1ccc(OC(F)F)c(F)c1-c1c(Cl)c(F)cc2c1C[C@@](CNC1CCC(O)(CF)CC1)(c1ccccc1)O2 (single isomer, unassigned) [Example 55a]	< 1
NC(=O)c1ccc(OC(F)F)c(F)c1-c1c(Cl)c(F)cc2c1C[C@@](CNC1CCC(O)(CF)CC1)(c1ccccc1)O2 (single isomer, unassigned) [Example 55b]	2
CS(=O)(=O)NC1CCC(NC[C@@]2(c3ccccc3)Cc3c(cc(F)c(Cl)c3-c3c(C(N)=O)ccc(OC(F)F)c3F)O2)CC1 (single isomer, unassigned) [Example 57a]	3
CS(=O)(=O)NC1CCC(NC[C@@]2(c3ccccc3)Cc3c(cc(F)c(Cl)c3-c3c(C(N)=O)ccc(OC(F)F)c3F)O2)CC1 (single isomer, unassigned) [Example 57b]	6
NC(=O)c1ccc(OC(F)F)c(F)c1-c1c(Cl)c(F)cc2c1C[C@@](CNC1CCC3(CCC(=O)N3)CC1)(c1ccccc1)O2 (single isomer, unassigned) [Example 59a]	6
NC(=O)c1ccc(OC(F)F)c(F)c1-c1c(Cl)c(F)cc2c1C[C@@](CNC1CCC3(CCC(=O)N3)CC1)(c1ccccc1)O2 (single isomer, unassigned) [Example 59b]	5
NC(=O)c1ccc(OC(F)F)c(F)c1-c1c(Cl)c(F)cc2c1C[C@@](CNC1CCC(CO)CC1)(c1ccccc1)O2 (single isomer, unassigned) [Example 61a]	8
NC(=O)c1ccc(OC(F)F)c(F)c1-c1c(Cl)c(F)cc2c1C[C@@](CNC1CCC(CO)CC1)(c1ccccc1)O2 (single isomer, unassigned) [Example 61b]	10
NC(=O)c1ccc(OC(F)F)c(F)c1-c1c(Cl)c(F)cc2c1C[C@@](CNC1CC3(CC(O)C3)C1)(c1ccccc1)O2 (single isomer, unassigned) [Example 85b]	7
COc1ccc(C(N)=O)c(-c2c(Cl)ccc3c2OC(CN)(c2ccccc2)C3)c1F (single isomer, unassigned) [Example 132, 2-(2-(Aminomethyl)-6-chloro-2-phenyl-2,3-dihydrobenzofuran-7-yl)-3-fluoro-4-methoxybenzamide]	2080
NCC1(c2ccccc2)Oc2ccc(Cl)c(-c3c(F)cccc3C(N)=O)c2O1 (single isomer, unassigned) [Example 133, 2-(2-(Aminomethyl)-5-chloro-2-phenylbenzo[d][1,3]dioxol-4-yl)-3-fluorobenzamide]	695
COc1ccc(C(N)=O)c(-c2c(Cl)c(F)cc3c2C[C@](c2ccccc2)(C2COCCN2)O3)c1F (single isomer, unassigned) [Example 163]	130
NC[C@@]1(c2ccccc2)Cc2c(ccc(Cl)c2-c2c(F)cccc2C(N)=O)O1 (stereo in doubt) [Example 4a, 2-((2S*,4S*)-2-(Aminomethyl)-5-chloro-2-phenyl-2,3-dihydrobenzofuran-4-yl)-3-fluorobenzamide]	34
NC[C@]1(c2ccccc2)Cc2c(ccc(Cl)c2-c2c(F)cccc2C(N)=O)O1 (stereo in doubt) [Example 4b, 2-((2S*,4R*)-2-(aminomethyl)-5-chloro-2-phenyl-2,3-dihydrobenzofuran-4-yl)-3-fluorobenzamide]	> 100000
NCCOc1cccc(F)c1-c1c(Cl)ccc2c1C[C@@](CN)(c1ccccc1)O2 [Example 3a, 2-(2-((2S,4S)-2-(Aminomethyl)-5-chloro-2-phenyl-2,3-dihydrobenzofuran-4-yl)-3-fluorophenoxy)ethanamine]	16
NCCOc1cccc(F)c1-c1c(Cl)ccc2c1C[C@](CN)(c1ccccc1)O2 [Example 3b, 2-(2-((2R,4R)-2-(aminomethyl)-5-chloro-2-phenyl-2,3-dihydrobenzofuran-4-yl)-3-fluorophenoxy)ethanamine]	18000
NC[C@@]1(c2ccccc2)Cc2c(cc(F)c(Cl)c2-c2c(F)cccc2C(N)=O)O1 [Example 32b, 2-((2S,4R)-2-(aminomethyl)-5-chloro-6-fluoro-2-phenyl-2,3-dihydrobenzofuran-4-yl)-3-fluorobenzamide]	> 100000
NC(=O)c1ccc(OC(F)F)c(F)c1-c1c(Cl)c(F)cc2c1C[C@@](CNC1CC3(CC(O)C3)C1)(c1ccccc1)O2 (stereo partly drawn) [Example 85a, 2-((2S,4S)-5-Chloro-6-fluoro-2-(((6-hydroxyspiro[3.3]heptan-2-yl)amino)methyl)-2-phenyl-2,3-dihydrobenzofuran-4-yl)-4-(difluoromethoxy)-3-fluorobenzamide]	4
N#Cc1ccc2c(c1-c1ccccc1)C[C@@](CN[C@H]1CC[C@H](O)CC1)(c1ccccc1)O2 [Example 130, (S)-2-((((trans)-4-Hydroxycyclohexyl)amino)methyl)-2,4-diphenyl-2,3-dihydrobenzofuran-5-carbonitrile]	797
CNC(=O)c1cnc(OCC(=O)O)c(F)c1-c1c(Cl)c(F)cc2c1C[C@](c1ccccc1)([C@@H]1CCCN1)O2 [Example 156, 2-((4-((2S,4S)-5-Chloro-6-fluoro-2-phenyl-2-((S)-pyrrolidin-2-yl)-2,3-dihydrobenzofuran-4-yl)-3-fluoro-5-(methylcarbamoyl)pyridin-2-yl)oxy)acetic acid]	11
CNC(=O)c1cnc(O)c(F)c1-c1c(Cl)c(F)cc2c1C[C@](c1ccccc1)([C@@H]1CCCN1)O2 [Example 157, 4-((2S,4S)-5-chloro-6-fluoro-2-phenyl-2-((S)-pyrrolidin-2-yl)-2,3-dihydrobenzofuran-4-yl)-5-fluoro-6-hydroxy-N-methylnicotinamide]	75
Fc1cc2c(c(-c3ccccc3)c1Cl)C[C@](c1ccccc1)([C@@H]1C[C@@H](F)CN1)O2 [Example 160, (2S,4R)-2-((S)-5-chloro-6-fluoro-2,4-diphenyl-2,3-dihydrobenzofuran-2-yl)-4-fluoropyrrolidine]	4400
